Experiment: xn = mol fraction of the nth substance listed
Details: 101 kPa, Liquid; for viscosity: Capillary tube (Ostwald / Ubbelohde) method; for mass density: Vibrating tube method

CC(C)CO [2-methyl-1-propanol] + CC(C)O
Details | mass density, 293.15 K [kg/m3] | mass density, 303.15 K [kg/m3] | mass density, 313.15 K [kg/m3] | mass density, 323.15 K [kg/m3] | mass density, 333.15 K [kg/m3] | viscosity, 293.15 K [mPa·s] | viscosity, 303.15 K [mPa·s] | viscosity, 313.15 K [mPa·s] | viscosity, 323.15 K [mPa·s] | viscosity, 333.15 K [mPa·s]
x1 = 0.1495 | 788.29 | 779.93 | 771.29 | 762.29 | 752.87 | 2.45 | 1.817 | 1.259 | 0.983 | 0.648
x1 = 0.2001 | 789.25 | 780.93 | 772.34 | 763.4 | 754.05 | 2.498 | 1.839 | 1.28 | 0.999 | 0.663
x1 = 0.3 | 791.09 | 782.85 | 774.35 | 765.53 | 756.31 | 2.621 | 1.907 | 1.331 | 1.035 | 0.696
x1 = 0.4249 | 793.26 | 785.12 | 776.74 | 768.04 | 758.97 | 2.81 | 2.021 | 1.418 | 1.095 | 0.745
x1 = 0.5189 | 794.8 | 786.73 | 778.43 | 769.83 | 760.87 | 2.976 | 2.131 | 1.505 | 1.158 | 0.794
x1 = 0.6202 | 796.38 | 788.38 | 780.17 | 771.67 | 762.82 | 3.184 | 2.271 | 1.617 | 1.237 | 0.857
x1 = 0.7166 | 797.83 | 789.9 | 781.76 | 773.35 | 764.6 | 3.395 | 2.417 | 1.732 | 1.32 | 0.921
x1 = 0.8005 | 799.06 | 791.18 | 783.1 | 774.76 | 766.09 | 3.594 | 2.547 | 1.837 | 1.394 | 0.979
x1 = 0.9001 | 800.47 | 792.65 | 784.64 | 776.38 | 767.81 | 3.838 | 2.709 | 1.963 | 1.483 | 1.051

CC(C)CO [2-methyl-1-propanol] + CCCO
Details | mass density, 293.15 K [kg/m3] | mass density, 303.15 K [kg/m3] | mass density, 313.15 K [kg/m3] | mass density, 323.15 K [kg/m3] | mass density, 333.15 K [kg/m3] | viscosity, 293.15 K [mPa·s] | viscosity, 303.15 K [mPa·s] | viscosity, 313.15 K [mPa·s] | viscosity, 323.15 K [mPa·s] | viscosity, 333.15 K [mPa·s]
x1 = 0.1038 | 803.39 | 795.39 | 787.25 | 778.91 | 770.34 | 2.147 | 1.586 | 1.079 | 0.835 | 0.508
x1 = 0.1962 | 803.24 | 795.27 | 787.16 | 778.85 | 770.31 | 2.269 | 1.657 | 1.14 | 0.88 | 0.545
x1 = 0.2944 | 803.09 | 795.15 | 787.07 | 778.79 | 770.27 | 2.413 | 1.744 | 1.21 | 0.93 | 0.588
x1 = 0.4058 | 802.91 | 795.01 | 786.96 | 778.71 | 770.2 | 2.594 | 1.855 | 1.297 | 0.991 | 0.641
x1 = 0.504 | 802.75 | 794.88 | 786.86 | 778.62 | 770.13 | 2.768 | 1.967 | 1.382 | 1.052 | 0.693
x1 = 0.6041 | 802.58 | 794.74 | 786.74 | 778.52 | 770.04 | 2.961 | 2.099 | 1.487 | 1.126 | 0.753
x1 = 0.7019 | 802.41 | 794.59 | 786.61 | 778.41 | 769.94 | 3.172 | 2.253 | 1.611 | 1.217 | 0.83
x1 = 0.8072 | 802.21 | 794.41 | 786.45 | 778.26 | 769.8 | 3.452 | 2.448 | 1.767 | 1.335 | 0.928
x1 = 0.8996 | – | 794.24 | 786.29 | 778.11 | 769.64 | – | 2.643 | 1.914 | 1.446 | 1.018

NCCCO [3-amino-1-propanol] + CCCO
Details | mass density, 293.15 K [kg/m3] | mass density, 303.15 K [kg/m3] | mass density, 313.15 K [kg/m3] | mass density, 323.15 K [kg/m3] | mass density, 333.15 K [kg/m3] | viscosity, 293.15 K [mPa·s] | viscosity, 303.15 K [mPa·s] | viscosity, 313.15 K [mPa·s] | viscosity, 323.15 K [mPa·s] | viscosity, 333.15 K [mPa·s]
x1 = 0.1088 | 826.73 | 818.68 | 810.49 | 802.16 | 793.63 | 2.978 | 2.081 | 1.401 | 0.999 | 0.579
x1 = 0.2019 | 845.91 | 837.85 | 829.65 | 821.33 | 812.86 | 4.164 | 2.839 | 2.061 | 1.474 | –
x1 = 0.2993 | 865.53 | 857.43 | 849.23 | 840.93 | 832.49 | 5.873 | 3.89 | 2.864 | 2.11 | 1.266
x1 = 0.4099 | 886.82 | 878.7 | 870.51 | 862.22 | 853.84 | 8.435 | 5.443 | 3.97 | 2.95 | 1.828
x1 = 0.5002 | 903.78 | 895.67 | 887.49 | 879.21 | 870.85 | 11.26 | 7.04 | 5.05 | 3.657 | 2.352
x1 = 0.6014 | 922.34 | 914.25 | 906.08 | 897.8 | 889.48 | 15.35 | 9.477 | 6.59 | 4.685 | 3.105
x1 = 0.6995 | 939.59 | 931.51 | 923.4 | 915.21 | 907.01 | 20.08 | 12.29 | 8.276 | 5.816 | 3.907
x1 = 0.8091 | 958.11 | 950.09 | 942.03 | 933.93 | 925.77 | 26.44 | 15.93 | 10.5 | 7.232 | 4.917
x1 = 0.9003 | 972.64 | 964.64 | 956.59 | 948.49 | 940.36 | 32.71 | 19.52 | 12.63 | 8.57 | 5.829

Reference: the NIST ThermoML archive (doi:10.1021/je3011634)
